Measured values reported in patent publication US10202351B2, “Pyrazolyl derivatives as pest control agents” (BAYER ANIMAL HEALTH GMBH, priority 2015, dated 2019).

Tests used:
[1] = test system: Tetranychus urticae; experiment: Tetranychus urticae spray test, OP-resistant; format: in vivo; settings: all stages on bean leaf discs, after 6 days
Method: Solvent: 78.0 parts by weight of acetone • • 1.5 parts by weight of dimethylformamide Emulsifier: alkylaryl polyglycol ether […] To produce further test concentrations, the formulation is diluted with emulsifier-containing water. Discs of bean leaves (Phaseolus vulgaris) infested with all stages of the greenhouse red spider mite (Tetranychus urticae) are sprayed with an active ingredient formulation of the desired concentration.

[2] = test system: Spodoptera frugiperda; experiment: Spodoptera frugiperda spray test; format: in vivo; settings: application rate 100 g/ha, caterpillars on maize leaf discs, after 7 days
Method: (§1) Solvent: 78.0 parts by weight of acetone • • 1.5 parts by weight of dimethylformamide Emulsifier: alkylaryl polyglycol ether […] To produce further test concentrations, the formulation is diluted with emulsifier-containing water. Leaf discs of maize (Zea mays) are sprayed with an active compound formulation of the desired concentration and, after drying, populated with caterpillars of the armyworm (Spodoptera frugiperda).

[3] = test system: Ctenocephalides felis; experiment: Ctenocephalides felis in vitro contact test with adult cat fleas; format: in vivo; settings: application rate 5 μg/cm^2 (500 g/ha), after 48 h, dead or moribund fleas
Method: After the solvent has evaporated off, the tubes are populated with 5-10 adult cat fleas (Ctenocephalides felis), sealed with a perforated plastic lid and incubated in a horizontal position at room temperature and ambient humidity. After 48 h, efficacy is determined. To this end, the tubes are stood upright and the fleas are knocked to the base of the tube. Fleas which remain motionless at the base or move in an uncoordinated manner are considered to be dead or moribund.

[4] = test system: Ctenocephalides felis; experiment: Ctenocephalides felis oral test; format: in vivo; settings: application rate 100 ppm in citrated cattle blood, kill after 2 days
Text: Solvent: dimethyl sulfoxide […] Dilution with citrated cattle blood gives the desired concentration. About 20 unfed adult cat fleas (Ctenocephalides felis) are placed into a chamber which is closed at the top and bottom with gauze. A metal cylinder whose bottom end is closed with parafilm is placed onto the chamber. The cylinder contains the blood/active ingredient formulation, which can be imbibed by the fleas through the parafilm membrane.

[5] = test system: Phaedon cochleariae; experiment: Phaedon cochleariae spray test; format: in vivo; settings: larvae on Chinese cabbage leaf discs, after 7 days
Method: as §1, with “Discs” for “Leaf discs”, “Chinese cabbage leaves (Brassica pekinensis)” for “maize (Zea mays)”, “ingredient” for “compound”, “larvae” for “caterpillars”, “mustard beetle (Phaedon cochleariae).” for “armyworm (Spodoptera frugiperda).”

[6] = test system: Lucilia cuprina; experiment: Lucilia cuprina test; format: in vivo; settings: application rate 100 ppm, L1 larvae, kill after 2 days
Method: (§2) Solvent: dimethyl sulfoxide
(§3) To produce a suitable preparation of active compound, 10 mg of active compound are mixed with 0.5 ml of dimethyl sulfoxide, and the concentrate is diluted with water to the desired concentration.
About 20 L1 larvae of the Australian sheep blowfly (Lucilia cuprina) are transferred into a test vessel containing minced horsemeat and the active compound formulation of the desired concentration.
After 2 days, the kill in % is determined. 100% means that all the larvae have been killed; 0% means that no larvae have been killed.

[7] = test system: Musca domestica; experiment: Musca domestica test; format: in vivo; settings: application rate 100 ppm, adult houseflies, kill after 2 days
Method: as §2, §3
Vessels containing a sponge treated with sugar solution and the active ingredient formulation of the desired concentration are populated with 10 adult houseflies (Musca domestica)).
After 2 days, the kill in % is determined. 100% means that all of the flies have been killed; 0% means that none of the flies have been killed.

[8] = test system: Boophilus microplus; experiment: Boophilus microplus injection test; format: in vivo; settings: application rate 20 μg/animal, after 7 days, laying of fertile eggs
Method: Solvent: dimethyl sulfoxide […] The animals are transferred into dishes and kept in a climate-controlled room. Efficacy is assessed after 7 days by laying of fertile eggs. Eggs which are not visibly fertile are stored in a climate-controlled cabinet until the larvae hatch after about 42 days.

[9] = logP determination by HPLC on reversed-phase column (EEC Directive 79/831 Annex V.A8); format: physicochemical
[10] = Table 3 intermediates, HPLC C18, acetonitrile/water with formic acid
[11] = Table 1, HPLC C18, acetonitrile/water with formic acid

Work on `Cc1cc(C(F)(C(F)(F)F)C(F)(F)F)cc(C(F)(F)F)c1-n1cc(-c2cccc(NC(=O)c3ccncc3)c2F)cn1` [Example 68] yielded an efficacy ([1]; application rate 100 g/ha) of 100%, an efficacy [2] of 100% and an efficacy [3] of 100%. For the same molecule, the efficacy [4] was 100%, the efficacy ([5]; application rate 100 g/ha) was 100% and the efficacy [6] was 100%. The efficacy [7] was 100% and the efficacy [8] was 100%.
Molecule `Cc1cc(C(F)(C(F)(F)F)C(F)(F)F)cc(C(F)(F)F)c1-n1cc(-c2cccc(NC(=O)c3ccc(C#N)nc3)c2F)cn1` [Example 69] has an efficacy [2] of 100%, an efficacy [3] of 100% and an efficacy [4] of 100%. For the same molecule, the efficacy ([5]; application rate 100 g/ha) was 100%, the efficacy [6] was 100% and the efficacy [8] was 100%.
In the case of `Cc1cc(C(F)(C(F)(F)F)C(F)(F)F)cc(C(F)(F)F)c1-n1cc(-c2ccc(F)c(NC(=O)C3(C)CC3)c2)cn1` [Example 30], the efficacy [2] is reported as 100%, the efficacy [3] is reported as 100% and the efficacy [4] is reported as 100%. It also gave an efficacy ([5]; application rate 100 g/ha) of 100%, an efficacy [6] of 100% and an efficacy [7] of 100%. For the same molecule, the efficacy [8] was 100%.
For `O=[N+]([O-])c1cccc(-c2cnn(-c3c(Cl)cc(C(F)(F)F)cc3Cl)c2)c1` [II-1], the lgP [9, 10] was “lgP 4.32”.
`Cc1cc(C(F)(C(F)(F)F)C(F)(F)F)cc(C(F)(F)F)c1-n1cc(-c2ccc(F)c(NC(=O)c3ccc(F)nc3)c2)cn1` [Example 39] showed an efficacy ([1]; application rate 100 g/ha) of 100%, an efficacy [2] of 100% and an efficacy [4] of 100%. The efficacy ([5]; application rate 100 g/ha) was 100%, the efficacy [6] was 100% and the efficacy [7] was 100%. For the same molecule, the efficacy [8] was 100%.
For `Cc1cc(C(F)(C(F)(F)F)C(F)(F)F)cc(C)c1-n1cc(-c2ccc(F)c(NC(=O)c3ccncc3)c2F)cn1` [Example 9], the efficacy ([1]; application rate 100 g/ha) was 100%, the efficacy [2] was 100% and the efficacy [4] was 100%. The efficacy ([5]; application rate 100 g/ha) was 100%, the lgP [9, 11] was “lgP 3.92” and the efficacy [6] was 100%. It also gave an efficacy [7] of 100% and an efficacy [8] of 100%.
`Cc1cc(C(F)(C(F)(F)F)C(F)(F)F)cc(C(F)(F)F)c1-n1cc(-c2cc(NC(=O)c3ccnc(F)c3)ccc2F)cn1` [Example 2-1] gave an efficacy ([1]; application rate 100 g/ha) of 90%, an efficacy [2] of 100% and an efficacy [4] of 95%. The efficacy ([5]; application rate 100 g/ha) was 100%, the efficacy [6] was 98% and the efficacy [7] was 100%. For the same molecule, the efficacy [8] was 100%.
In the case of `O=C(Nc1cccc(-c2cnn(-c3c(Cl)cc(C(F)(F)F)cc3Cl)c2)c1)c1ccncc1` [Example 3], the efficacy ([1]; application rate 500 g/ha) is reported as 90%, the efficacy [4] is reported as 90% and the efficacy ([5]; application rate 500 g/ha) is reported as 100%. The lgP [9, 11] was “lgP 3.2” and the efficacy [8] was 100%.
With `COc1cc(C(=O)Nc2cc(-c3cnn(-c4c(Cl)cc(C(F)(C(F)(F)F)C(F)(F)F)cc4Cl)c3)ccc2F)ccc1F` [Example 22] the efficacy ([1]; application rate 100 g/ha) was 100%, the efficacy [2] was 100% and the efficacy [4] was 100%. The efficacy ([5]; application rate 100 g/ha) was 100%, the efficacy [6] was 100% and the efficacy [7] was 100%. For the same molecule, the efficacy [8] was 100%.
In the case of `Cc1cc(C(F)(C(F)(F)F)C(F)(F)F)cc(C(F)(F)F)c1-n1cc(-c2cc(NC(=O)c3ccncc3)ccc2F)cn1` [Example 2-2], the efficacy ([1]; application rate 100 g/ha) is reported as 90%, the efficacy [2] is reported as 100% and the efficacy [4] is reported as 95%. It also gave an efficacy ([5]; application rate 100 g/ha) of 100%, an efficacy [6] of 98% and an efficacy [7] of 90%. For the same molecule, the efficacy [8] was 100%.
With `Cc1cc(C(F)(C(F)(F)F)C(F)(F)F)cc(C)c1-n1cc(-c2ccc(Cl)c(N)c2)cn1` [III-7, 2-chloro-5-[1-[2,6-dimethyl-4-[1,2,2,2-tetrafluoro-1-(trifluoromethyl)ethyl]phenyl]pyrazol-4-yl]aniline] the lgP [9, 10] was “lgP 4.93” and the lgP ([9]; synthesis example) was 4.93.
`Cc1cc(C(F)(C(F)(F)F)C(F)(F)F)cc(C(F)(F)F)c1-n1cc(-c2ccc(F)c(N(C)C(=O)c3ccc(F)nc3)c2)cn1` [Example 48] showed an efficacy [2] of 100%, an efficacy [4] of 100% and an efficacy ([5]; application rate 100 g/ha) of 100%. It also gave an efficacy [6] of 100%, an efficacy [7] of 100% and an efficacy [8] of 100%.
In the case of `COc1cccc(C(=O)Nc2cc(-c3cnn(-c4c(C)cc(C(F)(C(F)(F)F)C(F)(F)F)cc4C(F)(F)F)c3)ccc2F)c1` [Example 32], the efficacy [2] is reported as 100%, the efficacy [3] is reported as 100% and the efficacy [4] is reported as 100%. It also gave an efficacy ([5]; application rate 100 g/ha) of 100%, an efficacy [6] of 100% and an efficacy [7] of 90%. It also gave an efficacy [8] of 100%.
In the case of `Cc1cc(C(F)(C(F)(F)F)C(F)(F)F)cc(C)c1-n1cc(-c2cccc(N)c2F)cn1` [III-10], the lgP [9, 10] is reported as “lgP 4.61”.
Work on `Cc1cc(C(F)(C(F)(F)F)C(F)(F)F)cc(C(F)(F)F)c1-n1cc(-c2ccc(F)c(NC(=O)c3ccc(F)nc3)c2F)cn1` [Example 40] yielded an efficacy ([1]; application rate 100 g/ha) of 100%, an efficacy [2] of 100% and an efficacy [4] of 100%. For the same molecule, the efficacy ([5]; application rate 100 g/ha) was 100%, the efficacy [6] was 100% and the efficacy [7] was 100%. For the same molecule, the efficacy [8] was 100%.
Molecule `Cc1cc(C(F)(C(F)(F)F)C(F)(F)F)cc(C(F)(F)F)c1-n1cc(-c2ccc(F)c(NC(=O)C3CSC3)c2F)cn1` [Example 65] has an efficacy ([1]; application rate 100 g/ha) of 100%, an efficacy [2] of 100% and an efficacy [4] of 100%. It also gave an efficacy ([5]; application rate 100 g/ha) of 100%, an efficacy [6] of 100% and an efficacy [7] of 100%. It also gave an efficacy [8] of 80%.
With `Cc1cc(C(F)(C(F)(F)F)C(F)(F)F)cc(C)c1-n1cc(-c2ccc(F)c(N)c2)cn1` [III-8] the lgP [9, 10] was “lgP 4.47”.
With `Cc1cc(C(F)(C(F)(F)F)C(F)(F)F)cc(C)c1-n1cc(-c2ccnc(NC(=O)c3ccc(F)cc3)c2)cn1` [Example 14] the lgP [9, 11] was “lgP 4.69” and the efficacy [8] was 80%.
For `Nc1cccc(-c2cnn(-c3c(Cl)cc(C(F)(F)F)cc3Cl)c2)c1` [III-1], the lgP [9, 10] was “lgP 2.90”.
In the case of `Cc1cc(C(F)(C(F)(F)F)C(F)(F)F)cc(C)c1-n1cc(-c2ccc(F)c(N)c2F)cn1` [III-9], the lgP [9, 10] is reported as “lgP 4.81”.
`Cc1cc(C(F)(C(F)(F)F)C(F)(F)F)cc(C(F)(F)F)c1-n1cc(-c2ccc(F)c(NC(=O)c3ccc(C#N)nc3)c2)cn1` [Example 46] showed an efficacy [2] of 100%, an efficacy [3] of 100% and an efficacy [4] of 100%. The efficacy ([5]; application rate 100 g/ha) was 100%, the efficacy [6] was 100% and the efficacy [7] was 100%. It also gave an efficacy [8] of 100%.
In the case of `Cc1cc(C(F)(C(F)(F)F)C(F)(F)F)cc(C)c1-n1cc(-c2cnc(Cl)c(NC(=O)C3(C#N)CC3)c2)cn1` [Example 13], the efficacy [2] is reported as 83%, the efficacy [4] is reported as 100% and the lgP [9, 11] is reported as “lgP 4.69”. It also gave an efficacy [6] of 90%, an efficacy [7] of 80% and an efficacy [8] of 100%.
`Cc1cc(C(F)(C(F)(F)F)C(F)(F)F)cc(C)c1-n1cc(-c2ccc(N(C)C)c(NC(=O)c3ccncc3)c2)cn1` [Example 20] gave an efficacy ([1]; application rate 100 g/ha) of 100%, an efficacy [2] of 100% and an efficacy [3] of 100%. It also gave an efficacy [4] of 100%, an efficacy ([5]; application rate 100 g/ha) of 100% and an efficacy [7] of 90%. It also gave an efficacy [8] of 100%.
For `Cc1cc(C(F)(C(F)(F)F)C(F)(F)F)cc(C)c1-n1cc(-c2ccc(Cl)c(NC(=O)c3cccc(F)c3)c2)cn1` [Example 8], the lgP [9, 11] was “lgP 5.59” and the efficacy [8] was 100%.
With `Cc1cc(C(F)(C(F)(F)F)C(F)(F)F)cc(C)c1-n1cc(-c2ccc(Cl)c(NC(=O)c3ccccc3F)c2)cn1` [Example 10] the lgP [9, 11] was “lgP 6.06” and the efficacy [8] was 100%.
With `Cc1cc(C(F)(C(F)(F)F)C(F)(F)F)cc(C)c1-n1cc(-c2ccc(Cl)c([N+](=O)[O-])c2)cn1` [II-7, 4-(4-chloro-3-nitrophenyl)-1-[2,6-dimethyl-4-[1,2,2,2-tetrafluoro-1-(trifluoromethyl)ethyl]phenyl]pyrazole] the lgP [9, 10] was “lgP 5.39” and the lgP ([9]; synthesis example) was 5.39.
